Some test systems named below: SNB-75 CNS; SW-620 colon; HCT-116 colon; HT29 colon; SK-OV-3 ovarian; HOP-62 NSCLC; SR leukemia; HL-60(TB) leukemia; K-562 leukemia; CCRF-CEM leukemia.
Common to all, as to experiment: NCI-60 cell line screen, 48 h

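1) Cells in 96-well plates. 2) Compound, 48 h, 5 concentrations. 3) Linear interpolation between surrounding doses. 4) Unreached endpoint = highest concentration. Here, GI50 denotes the concentration required for 50% inhibition of growth. Definition used: TGI = concentration required for complete inhibition of growth.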

Consider `COc1cc2c(cc1OC)-c1c(c3ccc([N+](=O)[O-])cc3c(=O)n1CCCN=[N+]=[N-])C2=O`, for which the GI50 is 86.2 µM with SNB-75 CNS; 99.8 µM with SW-620 colon; 31.5 µM in the assay with HCT-116 colon; greater than 100 µM with HT29 colon; greater than 100 µM in the assay on SK-OV-3 ovarian; 29.8 µM in the assay on HOP-62 NSCLC. Also, the results for the GI50 in the assay with SR leukemia, in the assay on HL-60(TB) leukemia and with K-562 leukemia were 509 nM, 73 µM and 19.6 µM, respectively. In addition, the TGI in the assay on SNB-75 CNS, with SW-620 colon, in the assay on HCT-116 colon, with HT29 colon, in the assay with SK-OV-3 ovarian and in the assay on HOP-62 NSCLC was greater than 100 µM in each case. The TGI with SR leukemia was 3.68 µM; with HL-60(TB) leukemia it was greater than 100 µM; in the assay with K-562 leukemia, greater than 100 µM.
On to `CCOC1Oc2ccccc2C(=O)/C1=C\Nc1ccc(C(=O)O)c(O)c1` (centres undefined), for which the GI50 in the assay with SNB-75 CNS was 20.3 µM; with SW-620 colon, 30.8 µM; with HCT-116 colon it was 15.7 µM; with HT29 colon, 28.7 µM; in the assay on SK-OV-3 ovarian it was 21.7 µM; in the assay on HOP-62 NSCLC, 32.4 µM. Moreover, the GI50 with SR leukemia was 39400 nM; in the assay on HL-60(TB) leukemia, 32.7 µM; in the assay on K-562 leukemia it was 36.4 µM. The TGI was 58.3 µM in the assay with SNB-75 CNS; greater than 100 µM with SW-620 colon; 35.1 µM in the assay on HCT-116 colon; 72.7 µM in the assay with HT29 colon; 67.6 µM in the assay on SK-OV-3 ovarian; greater than 100 µM with HOP-62 NSCLC. The TGI in the assay with SR leukemia, with HL-60(TB) leukemia and in the assay on K-562 leukemia was greater than 100 µM each time.
As for `O=C(O)CC(S)C(=O)O.[Li+].[Sb]` (centres undefined), the GI50 in the assay on CCRF-CEM leukemia was 57 µM; in the assay on SW-620 colon, greater than 100 µM; in the assay with HCT-116 colon, greater than 100 µM; in the assay on HT29 colon it was 88.6 µM; in the assay with HOP-62 NSCLC, 44.2 µM; with SR leukemia, 32900 nM. The GI50 with HL-60(TB) leukemia was greater than 100 µM; in the assay with K-562 leukemia, 85.3 µM. Further, the TGI in the assay with CCRF-CEM leukemia, with SW-620 colon, with HCT-116 colon, in the assay with HT29 colon, in the assay on HOP-62 NSCLC and with SR leukemia was greater than 100 µM in each case. Besides, the TGI with HL-60(TB) leukemia and in the assay with K-562 leukemia was greater than 100 µM throughout.
As for `COc1ccc2[nH]cc(Cc3c[nH]c4ccc(OC)cc34)c2c1`, the GI50 in the assay on SNB-75 CNS is 13.7 µM; with SW-620 colon it was 18.3 µM; in the assay with HCT-116 colon, 15.8 µM; in the assay with HT29 colon, 17.9 µM; in the assay on SR leukemia it was 77800 nM; in the assay on HL-60(TB) leukemia it was 44.2 µM. In addition, the GI50 in the assay on K-562 leukemia was 19.1 µM. Also, the TGI with SNB-75 CNS is 50.6 µM; with SW-620 colon, 32.2 µM; in the assay with HCT-116 colon it was 29.2 µM; with HT29 colon, 32.3 µM; in the assay on SR leukemia, greater than 100 µM; with HL-60(TB) leukemia it was greater than 100 µM. The molecule also yielded a TGI in the assay on K-562 leukemia of 71.4 µM.
Consider `CC1OC(OC2C(O)C(OCCc3ccc(O)c(O)c3)OC(CO)C2OC(=O)/C=C/c2ccc(O)c(O)c2)C(O)C(O)C1O` (centres undefined), for which the GI50 in the assay on SW-620 colon is 28.7 µM; in the assay on HCT-116 colon it was greater than 100 µM; with SK-OV-3 ovarian, greater than 100 µM; in the assay with HOP-62 NSCLC it was greater than 100 µM; in the assay with SR leukemia, 634 nM; in the assay with HL-60(TB) leukemia it was 14.9 µM. Also, in the assay with K-562 leukemia, the GI50 was 15.5 µM. Further, the TGI with SW-620 colon is 72 µM; in the assay with HCT-116 colon, greater than 100 µM; with SK-OV-3 ovarian, greater than 100 µM; in the assay with HOP-62 NSCLC, greater than 100 µM; in the assay with SR leukemia, greater than 100 µM; with HL-60(TB) leukemia it was greater than 100 µM. In addition, in the assay on K-562 leukemia, the TGI was greater than 100 µM.
Consider `CN(CCCCCCCCNc1ccnc2ccccc12)Cc1ccc(-c2ccc(-c3ccc(C#N)cc3)s2)cc1`, for which the GI50 in the assay on SNB-75 CNS is 1.35 µM; in the assay with SW-620 colon it was 0.178 µM; in the assay with HCT-116 colon it was 0.184 µM; with HT29 colon, 0.318 µM; with SK-OV-3 ovarian, 1.65 µM; in the assay with HOP-62 NSCLC it was 0.685 µM. Besides, the results for the GI50 in the assay with SR leukemia, in the assay on HL-60(TB) leukemia and in the assay on K-562 leukemia were 83 nM, 1.15 µM and 0.0172 µM, respectively. Further, the TGI in the assay with SNB-75 CNS worked out at 2.68 µM; in the assay on SW-620 colon, 0.432 µM; in the assay with HCT-116 colon it was 0.537 µM; with HT29 colon, 1.77 µM; in the assay on SK-OV-3 ovarian it was 3.27 µM; with HOP-62 NSCLC, 2.5 µM. Also, the TGI in the assay with SR leukemia was found to be 0.35 µM; in the assay with HL-60(TB) leukemia it was 2.93 µM; in the assay with K-562 leukemia it was 0.107 µM.
Take `O=C(Nc1cccc(-n2ccc3c(NC(=O)c4ccccc4)nccc32)c1)c1ccc(Cl)c(Cl)c1`: the GI50 in the assay on SNB-75 CNS was 0.147 µM; with SW-620 colon it was 0.106 µM; with HCT-116 colon, 0.0989 µM; in the assay with HT29 colon, 0.0833 µM; in the assay with SK-OV-3 ovarian it was 0.0956 µM; with HOP-62 NSCLC, 0.24 µM. Also, the GI50 in the assay with SR leukemia is 40.8 nM; in the assay with HL-60(TB) leukemia it was 0.188 µM; with K-562 leukemia it was 0.0551 µM. Further, the TGI in the assay on SNB-75 CNS is 1.22 µM; in the assay on SW-620 colon, 1.48 µM; with HCT-116 colon it was 1.22 µM; in the assay on HT29 colon, 0.84 µM; in the assay with SK-OV-3 ovarian, 1.1 µM; in the assay with HOP-62 NSCLC it was 1.87 µM. The TGI with HL-60(TB) leukemia is 0.977 µM.

The values above are taken from PubChem BioAssay (NCI).
